From ChEMBL document CHEMBL5465560, “Selectivity Literature for EUbOPEN Chemogenomic Library” (2024)

Key:
[1] = biological target: Hepatocyte growth factor-like protein (Homo sapiens) (UniProt P26927); conditions: at 10 µM
[2] = biological target: Angiopoietin-1 receptor (Homo sapiens) (UniProt Q02763); test: Selectivity interaction (KinomeScan (DiscoverX)) EUB0000607a TEK; conditions: at 10 µM
[3] = biological target: Epidermal growth factor receptor (Homo sapiens, UniProt P00533); conditions: at 10 µM
Chain of Epidermal growth factor receptor (P00533 whole entry): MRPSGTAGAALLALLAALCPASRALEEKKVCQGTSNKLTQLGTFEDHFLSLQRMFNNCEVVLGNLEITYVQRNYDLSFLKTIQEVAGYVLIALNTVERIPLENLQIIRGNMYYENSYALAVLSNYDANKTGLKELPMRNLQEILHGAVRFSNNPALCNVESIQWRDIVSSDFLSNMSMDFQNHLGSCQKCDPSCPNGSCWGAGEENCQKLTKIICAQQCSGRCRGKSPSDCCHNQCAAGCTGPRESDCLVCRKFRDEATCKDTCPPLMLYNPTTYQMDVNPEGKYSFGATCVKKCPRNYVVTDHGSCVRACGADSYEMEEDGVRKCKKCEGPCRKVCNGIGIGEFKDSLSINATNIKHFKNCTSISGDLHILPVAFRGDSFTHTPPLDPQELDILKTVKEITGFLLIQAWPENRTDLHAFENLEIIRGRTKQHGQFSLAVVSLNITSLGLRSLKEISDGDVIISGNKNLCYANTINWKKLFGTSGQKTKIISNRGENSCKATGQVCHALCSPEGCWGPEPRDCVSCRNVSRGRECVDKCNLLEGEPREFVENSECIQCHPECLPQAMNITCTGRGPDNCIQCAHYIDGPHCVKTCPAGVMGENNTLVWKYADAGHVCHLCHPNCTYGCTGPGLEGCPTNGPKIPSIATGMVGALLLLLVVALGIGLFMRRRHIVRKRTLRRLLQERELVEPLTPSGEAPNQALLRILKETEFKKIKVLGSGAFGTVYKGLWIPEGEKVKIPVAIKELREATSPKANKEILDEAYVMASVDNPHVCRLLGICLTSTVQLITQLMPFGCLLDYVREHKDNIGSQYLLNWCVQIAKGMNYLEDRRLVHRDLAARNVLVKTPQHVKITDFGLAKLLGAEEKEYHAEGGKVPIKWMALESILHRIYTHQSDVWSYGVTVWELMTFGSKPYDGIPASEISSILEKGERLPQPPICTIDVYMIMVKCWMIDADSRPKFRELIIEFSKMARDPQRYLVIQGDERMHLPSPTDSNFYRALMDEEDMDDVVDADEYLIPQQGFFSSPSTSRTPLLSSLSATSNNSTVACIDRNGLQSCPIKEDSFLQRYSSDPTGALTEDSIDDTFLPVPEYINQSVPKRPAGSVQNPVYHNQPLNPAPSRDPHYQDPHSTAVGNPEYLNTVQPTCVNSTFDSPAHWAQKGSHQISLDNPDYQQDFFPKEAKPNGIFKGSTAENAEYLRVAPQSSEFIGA

[4] = biological target: T1, Activin receptor type-1B (Homo sapiens) (UniProt P36896); test: Selectivity interaction (Upstate Kinase Profiler service (Millipore)) EUB0000056c ACVR1B; conditions: at 1 µM
T1 sequence (whole entry): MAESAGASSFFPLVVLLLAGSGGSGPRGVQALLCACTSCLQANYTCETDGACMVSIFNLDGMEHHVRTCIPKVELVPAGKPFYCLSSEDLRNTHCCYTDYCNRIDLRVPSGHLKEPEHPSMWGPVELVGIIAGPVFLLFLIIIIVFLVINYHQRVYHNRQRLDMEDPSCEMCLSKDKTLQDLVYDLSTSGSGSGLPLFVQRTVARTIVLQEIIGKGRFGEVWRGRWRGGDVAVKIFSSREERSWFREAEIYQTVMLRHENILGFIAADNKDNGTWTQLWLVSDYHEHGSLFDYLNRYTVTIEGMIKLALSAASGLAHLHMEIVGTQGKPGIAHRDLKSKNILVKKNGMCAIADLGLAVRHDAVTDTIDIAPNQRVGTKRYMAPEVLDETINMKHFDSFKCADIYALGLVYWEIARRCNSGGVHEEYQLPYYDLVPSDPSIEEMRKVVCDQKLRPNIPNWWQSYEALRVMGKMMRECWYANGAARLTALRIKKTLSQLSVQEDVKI

[5] = biological target: T2, Ephrin type-A receptor 6 (Homo sapiens) (UniProt Q9UF33); conditions: at 10 µM
T2 sequence (whole entry): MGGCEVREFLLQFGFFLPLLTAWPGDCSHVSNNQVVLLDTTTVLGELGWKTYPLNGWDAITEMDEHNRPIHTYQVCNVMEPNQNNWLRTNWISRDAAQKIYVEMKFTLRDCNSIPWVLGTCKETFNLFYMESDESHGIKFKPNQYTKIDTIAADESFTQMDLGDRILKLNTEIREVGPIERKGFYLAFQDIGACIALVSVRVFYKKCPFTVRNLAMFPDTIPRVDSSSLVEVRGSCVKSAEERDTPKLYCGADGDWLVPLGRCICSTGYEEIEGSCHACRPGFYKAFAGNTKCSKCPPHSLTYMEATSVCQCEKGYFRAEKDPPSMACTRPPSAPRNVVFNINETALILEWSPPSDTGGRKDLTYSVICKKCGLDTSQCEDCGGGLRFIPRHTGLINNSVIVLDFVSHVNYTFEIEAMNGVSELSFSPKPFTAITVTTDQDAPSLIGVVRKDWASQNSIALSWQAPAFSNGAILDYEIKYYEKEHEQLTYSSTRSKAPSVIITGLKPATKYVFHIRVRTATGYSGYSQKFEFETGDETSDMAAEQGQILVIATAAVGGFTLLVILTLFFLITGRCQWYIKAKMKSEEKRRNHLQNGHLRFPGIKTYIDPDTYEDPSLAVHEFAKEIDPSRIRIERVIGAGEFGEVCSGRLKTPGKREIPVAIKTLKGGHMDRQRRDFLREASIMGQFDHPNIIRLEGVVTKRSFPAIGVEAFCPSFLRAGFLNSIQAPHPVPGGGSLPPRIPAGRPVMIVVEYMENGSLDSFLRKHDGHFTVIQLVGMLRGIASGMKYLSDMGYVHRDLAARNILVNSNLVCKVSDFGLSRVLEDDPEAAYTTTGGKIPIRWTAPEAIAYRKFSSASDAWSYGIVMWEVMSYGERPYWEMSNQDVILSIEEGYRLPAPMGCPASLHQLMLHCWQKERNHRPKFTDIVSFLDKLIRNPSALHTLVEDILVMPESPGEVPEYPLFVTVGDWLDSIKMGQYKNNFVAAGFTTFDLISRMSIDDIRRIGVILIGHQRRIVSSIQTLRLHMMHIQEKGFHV

[6] = biological target: T3, G protein-coupled receptor kinase 3 (Homo sapiens) (UniProt P35626); test: Selectivity interaction (KinomeScan (DiscoverX)) EUB0001049a ADRBK2; conditions: at 1 µM
T3 sequence (whole entry): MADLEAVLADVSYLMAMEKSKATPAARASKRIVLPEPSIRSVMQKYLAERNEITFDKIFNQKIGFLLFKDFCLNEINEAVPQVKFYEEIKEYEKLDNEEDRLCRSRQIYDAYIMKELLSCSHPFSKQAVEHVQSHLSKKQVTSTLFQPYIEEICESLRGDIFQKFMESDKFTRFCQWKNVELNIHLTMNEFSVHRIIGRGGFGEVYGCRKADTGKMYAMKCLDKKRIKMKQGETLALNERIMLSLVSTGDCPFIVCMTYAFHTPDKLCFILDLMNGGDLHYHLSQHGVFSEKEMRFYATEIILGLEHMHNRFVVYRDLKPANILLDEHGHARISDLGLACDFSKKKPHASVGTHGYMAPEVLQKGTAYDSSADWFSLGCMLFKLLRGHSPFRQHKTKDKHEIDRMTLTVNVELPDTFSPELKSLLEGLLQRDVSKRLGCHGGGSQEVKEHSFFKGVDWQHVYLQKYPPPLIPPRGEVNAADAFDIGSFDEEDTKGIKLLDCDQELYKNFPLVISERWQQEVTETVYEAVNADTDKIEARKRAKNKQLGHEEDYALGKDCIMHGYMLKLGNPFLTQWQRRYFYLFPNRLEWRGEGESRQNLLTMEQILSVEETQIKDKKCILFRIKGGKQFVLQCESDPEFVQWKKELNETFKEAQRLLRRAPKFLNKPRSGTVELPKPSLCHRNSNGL

[7] = biological target: T4, Rhodopsin kinase GRK1 (Homo sapiens) (UniProt Q15835); test: Selectivity interaction (KinomeScan (DiscoverX)) EUB0000695a GRK1; conditions: at 100 nM
T4 sequence (whole entry): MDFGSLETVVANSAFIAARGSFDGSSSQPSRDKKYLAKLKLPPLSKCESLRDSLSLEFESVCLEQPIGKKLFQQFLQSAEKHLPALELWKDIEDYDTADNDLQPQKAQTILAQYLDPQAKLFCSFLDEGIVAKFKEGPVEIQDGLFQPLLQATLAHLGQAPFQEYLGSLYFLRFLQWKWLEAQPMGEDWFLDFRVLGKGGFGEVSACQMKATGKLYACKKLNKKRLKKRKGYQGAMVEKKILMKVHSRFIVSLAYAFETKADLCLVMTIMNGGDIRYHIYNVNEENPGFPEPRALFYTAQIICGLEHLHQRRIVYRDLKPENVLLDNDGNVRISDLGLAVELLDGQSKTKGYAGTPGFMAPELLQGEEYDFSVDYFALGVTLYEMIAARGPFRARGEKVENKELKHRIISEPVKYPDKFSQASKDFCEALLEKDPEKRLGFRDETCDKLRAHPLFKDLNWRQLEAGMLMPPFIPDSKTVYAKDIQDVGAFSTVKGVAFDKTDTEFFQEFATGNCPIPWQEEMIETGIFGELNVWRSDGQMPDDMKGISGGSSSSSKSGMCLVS

Chain of Angiopoietin-1 receptor (Homo sapiens) (Q02763 whole entry): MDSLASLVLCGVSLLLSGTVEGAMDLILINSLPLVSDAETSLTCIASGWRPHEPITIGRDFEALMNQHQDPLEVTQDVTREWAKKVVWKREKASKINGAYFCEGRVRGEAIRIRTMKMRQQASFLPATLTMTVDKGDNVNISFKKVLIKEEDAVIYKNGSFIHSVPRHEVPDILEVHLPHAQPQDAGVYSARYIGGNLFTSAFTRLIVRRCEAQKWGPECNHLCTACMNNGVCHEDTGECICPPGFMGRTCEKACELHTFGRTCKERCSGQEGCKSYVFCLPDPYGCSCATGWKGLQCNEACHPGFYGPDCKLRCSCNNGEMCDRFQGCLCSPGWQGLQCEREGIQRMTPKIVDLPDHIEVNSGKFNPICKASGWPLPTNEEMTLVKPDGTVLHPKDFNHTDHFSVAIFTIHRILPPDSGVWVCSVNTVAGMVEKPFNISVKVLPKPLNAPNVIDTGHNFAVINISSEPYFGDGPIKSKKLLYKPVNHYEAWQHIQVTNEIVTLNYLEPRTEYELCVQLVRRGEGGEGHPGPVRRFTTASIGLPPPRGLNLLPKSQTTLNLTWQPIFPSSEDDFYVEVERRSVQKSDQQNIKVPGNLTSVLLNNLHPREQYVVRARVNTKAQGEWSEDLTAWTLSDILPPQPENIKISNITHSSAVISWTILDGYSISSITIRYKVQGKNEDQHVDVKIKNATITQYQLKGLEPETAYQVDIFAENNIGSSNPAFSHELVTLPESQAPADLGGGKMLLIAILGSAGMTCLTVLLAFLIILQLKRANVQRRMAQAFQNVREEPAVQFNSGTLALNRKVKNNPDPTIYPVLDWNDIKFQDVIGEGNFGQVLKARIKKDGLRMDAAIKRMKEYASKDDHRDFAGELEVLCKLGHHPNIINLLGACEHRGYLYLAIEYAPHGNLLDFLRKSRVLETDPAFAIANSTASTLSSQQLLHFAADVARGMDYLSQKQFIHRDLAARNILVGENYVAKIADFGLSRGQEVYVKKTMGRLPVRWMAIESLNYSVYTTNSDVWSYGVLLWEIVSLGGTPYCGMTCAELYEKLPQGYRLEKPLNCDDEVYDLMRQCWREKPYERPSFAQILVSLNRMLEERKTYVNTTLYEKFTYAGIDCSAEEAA

## CCN(CC)CCCCNc1ncc2cc(-c3cc(OC)cc(OC)c3)c(NC(=O)NC(C)(C)C)nc2n1
[1]
  % of control: 100%

## CNC(=O)Nc1ccc(-c2nc(N3CC4CCC(C3)O4)c3cnn(C4CCC5(CC4)OCCO5)c3n2)cc1
[2]
  % of control: 100%

## COCC(=O)NC/C=C/c1ccc2ncnc(Nc3ccc(Oc4ccc(C)nc4)c(C)c3)c2c1 [CP-724714]
[3]
  % of control: 0.2%

## Cc1ccc(-c2ccc3c(ccc4sc5c(c43)NC[C@@H](C)NC5=O)n2)cn1
[4]
  % of inhibition: 9%

## Cc1cc([C@@H](C)Nc2ccccc2C(=O)O)c2nc(N3CCOCC3)cc(=O)n2c1 [AZD-6482]
[5]
  % of control: 100%

## COc1cc(Nc2nc(C)cc(-c3cnn4nc(OC)ccc34)n2)cc(C(F)(F)F)c1
[6]
  % of control: 100%

## Cc1cc(F)c(C(=O)Nc2cccc(-c3nncn3C(C)C)n2)cc1-n1cnc(C2CC2)c1
[7]
  % of control: 100%
